Results reported in patent US7541020B2, “Aminoalkyl glucosaminide phosphate compounds and their use as adjuvants and immunoeffectors” (priority 1997, dated 2009).
“And” between values parts separate entries of the source, which are not always exact repeats. Identical values can stand only once. Like-named read-outs stand apart in the source and are kept apart here.

Experiments:
[1] = tested on: ovalbumin; assay: Stimulation of antiovalbumin antibody production; format: in vivo, BDF1 female mice; conditions: 50 μg AGP + 50 μg ovalbumin; second immunization day 21; bled 14 days after second injection
Method: BDF1 female mice (8 per group) were immunized with 0.2 ml of emulsions containing 50 μg of the AGPs +50 μg of ovalbumin. A second immunization was administered 21 days post primary. Each mouse was bled 14 days after the second injection.

[2] = tested on: E.G7 (OVA) cells; conditions: s.c. 25 μg OVA in AGP preparation, spleen cells 21 days later
[3] = Fever response in rabbits (pyrogenicity); format: in vivo; conditions: for PYROGENICITY Total Rise ° C., 3 rabbits: 10 ug/kg, cumulative rise ≥1.5 degree in three rabbits is considered pyrogenic; for PY[…]: rabbits
Method: The AGP compounds were also evaluated for their tendency to induce a fever response in rabbits. Each compound was formulated in 10% (v/v) ethanol/water solution at 100 mg/ml, then diluted with D5W to the desired concentration. The material was injected at 3 ml/kg body weight into 3 rabbits. The rise in core temperature of the rabbits was recorded.

[4] = tested on: influenza A/HK/68; format: in vivo, ICR mice; conditions: mouse, in vivo
[5] = tested on: tetanus toxoid; conditions: mouse, in vivo, sc
[6] = tested on: IL-1β; assay: Cytokine induction in human whole blood ex vivo culture: IL-1β (ELISA); format: cell-based; conditions: 4 hr
Method: (§1) AGP compounds were solubilized in 10% EtOH-water and diluted to various concentrations. Fifty μl of each dilution were added to 450 μl of whole human blood. Controls were treated with culture media (RPMI). The reaction mixture was incubated at 37° C. for 4 hr with constant mixing on a rotator. Sterile PBS (1.5 ml) was added to the reaction mixture, the cells were centrifuged and the supernatents removed for cytokine testing. The concentration of TNF-α and IL-1β in each supernatent was determined using immunoassay ELISA kits from R&D Systems.

[7] = tested on: TNF-α; assay: Cytokine induction in human whole blood ex vivo culture: TNF-α (ELISA); format: cell-based; conditions: 4 hr
Method: as §1

3-Hydroxy-(R)-2-[(R)-3-tetradecanoyloxytetradecanoylamino]propyl 2-Deoxy-4-O-phosphono-2-[(R)-3-tetradecanoyloxytetradecanoylamino]-3-O-[(R)-3-tetradecanoyloxytetradecanoyl]-β-D-glucopyranoside Triethylammonium Salt [B2]
Anti-ovalbumin IgG1 T/C [1]: 5.0
Anti-ovalbumin IgG1 Titer [1]: 8300
Anti-ovalbumin IgG2a T/C [1]: 2.5
Anti-ovalbumin IgG2a Titer [1]: 825
Anti-ovalbumin IgG2b T/C [1]: 2.3
Anti-ovalbumin IgG2b Titer [1]: 550
Anti-ovalbumin IgM T/C [1]: 0.9
Anti-ovalbumin IgM Titer [1]: 175
Anti-ovalbumin Total Ig T/C [1]: 2.5
Anti-ovalbumin Total Ig Titer [1]: 563
% Cytotoxicity ([2]; E:T 12.5:1): 6%
% Cytotoxicity ([2]; E:T 25:1): 12%
% Cytotoxicity ([2]; E:T 50:1): 21%
PYROGENICITY Total Rise ° C., 3 rabbits [3]: 3.6 °C
PY[…] [3]: 2.5 to 5 µg/kg

3-Hydroxy-(S)-2-[(R)-3-tetradecanoyloxytetradecanoylamino]propyl 2-Deoxy-4-O-phosphono-2-[(R)-3-tetradecanoyloxytetradecanoylamino]-3-O-[(R)-3-tetradecanoyloxytetradecanoyl]-β-D-glucopyranoside Triethylammonium Salt [B1]
Percent Survival [4]: 40%
Titer−1 IgG1 [4]: 6400
Titer−1 IgG2a [4]: 1600
Titer−1 IgG2b [4]: 15600
Titer−1 Total IgG [4]: 12,800
Anti-ovalbumin IgG1 T/C [1]: 0.5
Anti-ovalbumin IgG1 Titer [1]: 763
Anti-ovalbumin IgG2a T/C [1]: 0.2
Anti-ovalbumin IgG2a Titer [1]: 56
Anti-ovalbumin IgG2b T/C [1]: 0.8
Anti-ovalbumin IgG2b Titer [1]: 188
Anti-ovalbumin IgM T/C [1]: 0.8
Anti-ovalbumin IgM Titer [1]: 150
Anti-ovalbumin Total Ig T/C [1]: 0.5
Anti-ovalbumin Total Ig Titer [1]: 119
% Cytotoxicity ([2]; E:T 12.5:1): 15%
% Cytotoxicity ([2]; E:T 25:1): 24%
% Cytotoxicity ([2]; E:T 50:1): 34%
PYROGENICITY Total Rise ° C., 3 rabbits [3]: 0.1 °C

CCCCCCCCCCCCCC(=O)OC(CCCCCCCCCCC)CC(=O)NC(COC1OC(CO)C(OP(=O)(O)O)C(OC(=O)CC(CCCCCCCCCCC)OC(=O)CCCCCCCCCCCCC)C1NC(=O)CC(CCCCCCCCCCC)OC(=O)CCCCCCCCCCCCC)C(N)=O.CCN(CC)CC [B24, N-[(R)-3-Tetradecanoyloxytetradecanoyl]-O-phosphono-2-[(R)-3-tetradecanoyloxytetradecanoylamino]-3-O-[(R)-3-tetradecanoyloxytetradecanoyl]β-D-glucopyranosyl]-L-serinamide Triethylammonium Salt]
PYROGENICITY Total Rise ° C., 3 rabbits [3]: 2.4 °C
PY[…] [3]: 2.5 to 5 µg/kg

CCCCCCCCCCCCCC(=O)O[C@H](CCCCCCCCCCC)CC(=O)N[C@H]1[C@H](OC[C@H](NC(=O)C[C@@H](CCCCCCCCCCC)OC(=O)CCCCCCCCCCCCC)C(=O)OC)O[C@H](CO)[C@@H](OP(=O)(O)O)[C@@H]1OC(=O)C[C@@H](CCCCCCCCCCC)OC(=O)CCCCCCCCCCCCC.CCN(CC)CC [B26, N-[(R)-3-Tetradecanoyloxytetradecanoyl]-O-[2-deoxy-4-O-phosphono-2-[(R)-3-tetradecanoyloxytetradecanoylamino]-3-O-[(R)-3-tetradecanoyloxytetradecanoyl]-β-D-glucopyranosyl]-1-serine Methyl Ester Triethylammoniun Salt]
Anti-tetanus toxoid IgG1 T/C [5]: 16.9
Anti-tetanus toxoid IgG1 Titer [5]: 25,200
Anti-tetanus toxoid IgG2a T/C [5]: 29.3
Anti-tetanus toxoid IgG2a Titer [5]: 440
Anti-tetanus toxoid IgG2b T/C [5]: 42.6
Anti-tetanus toxoid IgG2b Titer [5]: 2,260
Anti-tetanus toxoid IgM T/C [5]: 1.1
Anti-tetanus toxoid IgM Titer [5]: 600
Anti-tetanus toxoid Total Ig T/C [5]: 10.5
Anti-tetanus toxoid Total Ig Titer [5]: 2,490
% Cytotoxicity ([2]; E:T 12.5:1): 4%
% Cytotoxicity ([2]; E:T 25:1): 8%
% Cytotoxicity ([2]; E:T 50:1): 14%
IL-1β ([6]; Dosage 1 μg, 37° C., Table 14): 3.90 pg/mL
IL-1β ([6]; Dosage 5 μg, 37° C., Table 14): 9.89 pg/mL
IL-1β ([6]; Dosage 10 μg, 37° C., Table 14): 25.34 pg/mL
IL-1β ([6]; Dosage 20 μg, 37° C., Table 14): 33.25 pg/mL
TNF-α ([7]; Dosage 1 μg, 37° C., Table 14): 38.85 pg/mL
TNF-α ([7]; Dosage 5 μg, 37° C., Table 14): 75.62 pg/mL
TNF-α ([7]; Dosage 10 μg, 37° C., Table 14): 254.94 pg/mL
TNF-α ([7]; Dosage 20 μg, 37° C., Table 14): 498.90 pg/mL
PYROGENICITY Total Rise ° C., 3 rabbits [3]: 1.7 °C
PY[…] [3]: 5 µg/kg

N-[(R)-3-Hexanoyloxytetradecanoyl]-O-[2-deoxy-4-O-phosphono-2-[(R)-3-hexanoyloxytetradecanoylamino]-3-O-[(R)-3-hexanoyloxytetradecanoyl]-α-d-glucopyranosyl]-l-serinamide Triethylammonium Salt [B29]
% Cytotoxicity ([2]; E:T 12.5:1): 5%
% Cytotoxicity ([2]; E:T 25:1): 9%
% Cytotoxicity ([2]; E:T 50:1): 16%
PYROGENICITY Total Rise ° C., 3 rabbits [3]: 0.7 °C

N-[(R)-3-Octanoyloxytetradecanoyl]-O-[2-deoxy-4-O-phosphono-2-[(R)-3-octanoyloxytetradecanoylamino]-3-O-[(R)-3-octanoyloxytetradecanoyl]-β-D-glucopyranosyl]-L-serine Triethylammonium Salt [B17]
Percent Survival [4]: 40%
Titer^−1 IgG1 [4]: 3200
Titer^−1 IgG2a [4]: 3200
Titer^−1 IgG2b [4]: 1600
Titer^−1 Total IgG [4]: 6400
% Cytotoxicity ([2]; E:T 12.5:1): 15%
% Cytotoxicity ([2]; E:T 25:1): 26%
% Cytotoxicity ([2]; E:T 50:1): 39%
IL-1β ([6]; Dosage 1000 ng/ml, Table 19): 0.2 pg/mL
IL-1β ([6]; Dosage 5000 ng/ml, Table 19): 0 pg/mL
IL-1β ([6]; Dosage 10,000 ng/ml, Table 19): 0 pg/mL
TNF-α ([7]; Dosage 1000 ng/ml, Table 19): 2.6 pg/mL
TNF-α ([7]; Dosage 5000 ng/ml, Table 19): 2.2 pg/mL
TNF-α ([7]; Dosage 10,000 ng/ml, Table 19): 2.8 pg/mL
PYROGENICITY Total Rise ° C., 3 rabbits [3]: 3.4 °C

N-[(R)-3-Tetradecanoyloxytetradecanoyl]-O-[2-Deoxy-4-O-phosphono-2-[(R)-3-tetradecanoyloxytetradecanoylamino]-3-O-[(R)-3-tetradecanoyloxytetradecanoyl]-β-D-glucopyranosyl]-L-serine Triethylammonium Salt [B11]
Percent Survival [4]: 30%
Titer^−1 IgG1 [4]: 200
Titer^−1 IgG2a [4]: 1600
Titer^−1 IgG2b [4]: 400
Titer^−1 Total IgG [4]: 1600
Anti-ovalbumin IgG1 T/C [1]: 1.6
Anti-ovalbumin IgG1 Titer [1]: 2650
Anti-ovalbumin IgG2a T/C [1]: 1.7
Anti-ovalbumin IgG2a Titer [1]: 550
Anti-ovalbumin IgG2b T/C [1]: 1.6
Anti-ovalbumin IgG2b Titer [1]: 375
Anti-ovalbumin IgM T/C [1]: 1.3
Anti-ovalbumin IgM Titer [1]: 250
Anti-ovalbumin Total Ig T/C [1]: 0.7
Anti-ovalbumin Total Ig Titer [1]: 150
Anti-tetanus toxoid IgG1 T/C [5]: 1.86
Anti-tetanus toxoid IgG1 Titer [5]: 400,000
Anti-tetanus toxoid IgG2a Titer [5]: 10,450
Anti-tetanus toxoid IgG2a titer [5]: 5900
Anti-tetanus toxoid IgG2b Titer [5]: 26,800
Anti-tetanus toxoid IgG2b titer [5]: 8400
Anti-tetanus toxoid IgM T/C [5]: 4.75 and 3.3
Anti-tetanus toxoid IgM Titer [5]: 7,600
Anti-tetanus toxoid IgM titer [5]: 5120
Anti-tetanus toxoid Total IgG T/C [5]: 3.6
Anti-tetanus toxoid Total IgG Titer [5]: 23,200
% Cytotoxicity ([2]; E:T 12.5:1): 5%
% Cytotoxicity ([2]; E:T 25:1): 8%
% Cytotoxicity ([2]; E:T 50:1): 14%
IL-1β ([6]; Dosage 100 ng/ml, Table 17): 59.8 pg/mL
IL-1β ([6]; Dosage 500 ng/ml, Table 17): 55.8 pg/mL
IL-1β ([6]; Dosage 1000 ng/ml, Table 17): 54.5 pg/mL
IL-1β ([6]; Dosage 5000 ng/ml, Table 17): 61.7 pg/mL
IL-1β ([6]; Dosage 10,000 ng/ml, Table 17): 62.3 pg/mL
TNF-α ([7]; Dosage 100 ng/ml, Table 17): 127 pg/mL
TNF-α ([7]; Dosage 500 ng/ml, Table 17): 125 pg/mL
TNF-α ([7]; Dosage 1000 ng/ml, Table 17): 115 pg/mL
TNF-α ([7]; Dosage 5000 ng/ml, Table 17): 139 pg/mL
TNF-α ([7]; Dosage 10,000 ng/ml, Table 17): 181 pg/mL
PY[…] [3]: 0.3 to 0.6 µg/kg
